From ChEMBL document CHEMBL5244205, “Discovery of tricyclic dipyrrolopyridine derivatives as novel JAK inhibitors” (Bioorg Med Chem, 2017)

Assays:
[1] = Clearance in Sprague-Dawley rat at 1 mg/kg, iv measured up to 24 hrs by LC-MS/MS analysis; assay type: ADME, organism-based; conditions: in vivo
[2] = Volume of distribution in Sprague-Dawley rat at 1 mg/kg, iv measured up to 24 hrs by LC-MS/MS analysis; assay type: ADME, organism-based; conditions: in vivo
[3] = Half life in Sprague-Dawley rat at 1 mg/kg, iv measured up to 24 hrs by LC-MS/MS analysis; assay type: ADME, organism-based; conditions: in vivo
[4] = AUC (0 to 24 hrs) in Sprague-Dawley rat at 1 mg/kg, iv measured up to 24 hrs by LC-MS/MS analysis; assay type: ADME, organism-based; set-up: dose 1 mg/kg, time < 24 hrs, route iv; conditions: in vivo
[5] = Cmax in Sprague-Dawley rat at 1 mg/kg, po measured up to 24 hrs by LC-MS/MS analysis; assay type: ADME, organism-based; set-up: time < 24 hrs, dose 1 mg/kg, route po; conditions: in vivo
[6] = Half life in Sprague-Dawley rat at 1 mg/kg, po measured up to 24 hrs by LC-MS/MS analysis; assay type: ADME, organism-based; conditions: in vivo
[7] = AUC (0 to 24 hrs) in Sprague-Dawley rat at 1 mg/kg, po measured up to 24 hrs by LC-MS/MS analysis; assay type: ADME, organism-based; set-up: dose 1 mg/kg, time < 24 hrs, route po; conditions: in vivo
[8] = Oral availability in Sprague-Dawley rat at 1 mg/kg measured up to 24 hrs by LC-MS/MS analysis; assay type: ADME, organism-based; conditions: in vivo
[9] = Tmax in Sprague-Dawley rat at 1 mg/kg, po measured up to 24 hrs by LC-MS/MS analysis; assay type: ADME, organism-based; conditions: in vivo
[10] = molecular target: Tyrosine-protein kinase ABL1 (Homo sapiens, UniProt P00519); experiment: Inhibition of ABL (unknown origin)
[11] = molecular target: Tyrosine-protein kinase BTK (Homo sapiens, UniProt Q06187); experiment: Inhibition of BTK (unknown origin)
[12] = molecular target: Tyrosine-protein kinase CSK (Homo sapiens, UniProt P41240); experiment: Inhibition of CSK (unknown origin)
[13] = molecular target: Epidermal growth factor receptor (Homo sapiens, UniProt P00533); experiment: Inhibition of EGFR (unknown origin)
Ephrin type-A receptor 2 = Ephrin type-A receptor 2 (Homo sapiens, UniProt P29317); experiment: Inhibition of EphA2 (unknown origin)
Focal adhesion kinase 1 = Focal adhesion kinase 1 (Homo sapiens, UniProt Q05397); experiment: Inhibition of FAK (unknown origin)
[14] = molecular target: Insulin-like growth factor 1 receptor (Homo sapiens, UniProt P08069); experiment: Inhibition of IGF1R (unknown origin)
[15] = molecular target: Tyrosine-protein kinase ITK/TSK (Homo sapiens, UniProt Q08881); experiment: Inhibition of ITK (unknown origin)
[16] = Inhibition of SYK (unknown origin); set-up: species or system Homo sapiens
Angiopoietin-1 receptor = Angiopoietin-1 receptor (Homo sapiens, UniProt Q02763); experiment: Inhibition of TIE2 (unknown origin)
[17] = molecular target: Tyrosine-protein kinase ZAP-70 (Homo sapiens, UniProt P43403); experiment: Inhibition of ZAP70 (unknown origin)
[18] = molecular target: Bone morphogenetic protein receptor type-1A (Homo sapiens, UniProt P36894); experiment: Inhibition of BMPR1A (unknown origin)
[19] = molecular target: Casein kinase I isoform delta (Homo sapiens, UniProt P48730); experiment: Inhibition of CHKdelta (unknown origin)
[20] = molecular target: Inhibitor of nuclear factor kappa-B kinase subunit beta (Homo sapiens, UniProt O14920); experiment: Inhibition of IKKB (unknown origin)
[21] = molecular target: Mitogen-activated protein kinase kinase kinase 1 (Homo sapiens, UniProt Q13233); experiment: Inhibition of MAP3K1 (unknown origin)
[22] = molecular target: MAP kinase-activated protein kinase 2 (Homo sapiens, UniProt P49137); experiment: Inhibition of MAPKAPK2 (unknown origin)
[23] = molecular target: Mitogen-activated protein kinase 11 (Homo sapiens, UniProt Q15759); experiment: Inhibition of P38beta (unknown origin)
[24] = molecular target: RAF proto-oncogene serine/threonine-protein kinase (Homo sapiens, UniProt P04049); experiment: Inhibition of RAF1 (unknown origin)
Cytochrome P450 3A4 = Cytochrome P450 3A4 (Homo sapiens, UniProt P08684); conditions: microsomes, 20 min, 5 µM
[25] = pampa, pH 6.5, 2 h
Description: Permeability of the compound in pH 6.5 incubated for 2 hrs by PAMPA based HPLC analysis

Chain of Ephrin type-A receptor 2 (P29317 whole entry): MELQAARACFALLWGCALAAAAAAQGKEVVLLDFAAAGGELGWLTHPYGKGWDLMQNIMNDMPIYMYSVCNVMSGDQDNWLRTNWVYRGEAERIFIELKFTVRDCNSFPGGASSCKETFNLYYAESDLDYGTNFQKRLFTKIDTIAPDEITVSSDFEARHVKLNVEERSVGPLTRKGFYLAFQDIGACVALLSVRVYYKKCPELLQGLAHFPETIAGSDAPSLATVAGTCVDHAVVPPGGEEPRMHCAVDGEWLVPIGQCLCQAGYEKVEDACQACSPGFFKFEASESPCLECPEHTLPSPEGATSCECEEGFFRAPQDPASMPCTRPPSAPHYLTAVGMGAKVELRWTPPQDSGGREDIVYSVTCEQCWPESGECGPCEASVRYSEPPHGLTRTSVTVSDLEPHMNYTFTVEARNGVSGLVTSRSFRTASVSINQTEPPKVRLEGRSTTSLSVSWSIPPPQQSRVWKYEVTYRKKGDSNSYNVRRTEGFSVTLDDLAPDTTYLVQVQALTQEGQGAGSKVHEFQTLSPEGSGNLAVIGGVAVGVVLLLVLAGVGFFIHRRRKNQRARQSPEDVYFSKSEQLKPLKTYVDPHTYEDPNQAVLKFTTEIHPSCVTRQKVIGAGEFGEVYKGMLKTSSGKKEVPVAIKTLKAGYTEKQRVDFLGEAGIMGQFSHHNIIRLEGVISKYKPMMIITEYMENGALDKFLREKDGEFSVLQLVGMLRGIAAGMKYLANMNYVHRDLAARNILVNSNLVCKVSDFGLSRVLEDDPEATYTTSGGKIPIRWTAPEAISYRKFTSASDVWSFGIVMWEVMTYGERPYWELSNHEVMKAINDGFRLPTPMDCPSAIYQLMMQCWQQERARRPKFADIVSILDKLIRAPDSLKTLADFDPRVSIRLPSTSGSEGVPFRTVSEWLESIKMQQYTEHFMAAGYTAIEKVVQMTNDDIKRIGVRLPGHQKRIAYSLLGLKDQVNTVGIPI
Chain of Bone morphogenetic protein receptor type-1A (P36894 whole entry, canonical isoform): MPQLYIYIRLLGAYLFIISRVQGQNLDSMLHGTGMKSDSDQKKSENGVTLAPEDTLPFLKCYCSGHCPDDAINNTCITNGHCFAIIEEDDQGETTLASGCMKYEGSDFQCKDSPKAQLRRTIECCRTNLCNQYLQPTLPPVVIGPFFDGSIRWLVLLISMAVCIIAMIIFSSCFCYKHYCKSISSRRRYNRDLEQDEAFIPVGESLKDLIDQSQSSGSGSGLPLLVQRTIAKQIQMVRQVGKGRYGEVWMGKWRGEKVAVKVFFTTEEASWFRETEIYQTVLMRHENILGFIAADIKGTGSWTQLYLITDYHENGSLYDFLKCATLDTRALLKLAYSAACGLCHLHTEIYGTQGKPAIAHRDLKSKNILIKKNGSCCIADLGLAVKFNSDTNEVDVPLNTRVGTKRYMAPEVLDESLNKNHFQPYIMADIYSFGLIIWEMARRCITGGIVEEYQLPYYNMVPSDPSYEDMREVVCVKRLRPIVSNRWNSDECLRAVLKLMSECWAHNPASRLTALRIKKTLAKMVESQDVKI
Chain of Mitogen-activated protein kinase 11 (Q15759 whole entry): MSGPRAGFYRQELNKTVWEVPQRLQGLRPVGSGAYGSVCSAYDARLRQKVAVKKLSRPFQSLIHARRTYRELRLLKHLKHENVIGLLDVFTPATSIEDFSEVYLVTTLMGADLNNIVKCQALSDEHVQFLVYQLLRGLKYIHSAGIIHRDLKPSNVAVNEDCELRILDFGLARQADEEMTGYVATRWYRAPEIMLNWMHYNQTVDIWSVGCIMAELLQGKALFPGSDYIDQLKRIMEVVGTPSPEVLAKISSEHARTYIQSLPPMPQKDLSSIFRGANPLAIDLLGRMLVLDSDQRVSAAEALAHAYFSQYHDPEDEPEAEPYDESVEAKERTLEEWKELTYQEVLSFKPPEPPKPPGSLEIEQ
Chain of Tyrosine-protein kinase CSK (P41240 whole entry): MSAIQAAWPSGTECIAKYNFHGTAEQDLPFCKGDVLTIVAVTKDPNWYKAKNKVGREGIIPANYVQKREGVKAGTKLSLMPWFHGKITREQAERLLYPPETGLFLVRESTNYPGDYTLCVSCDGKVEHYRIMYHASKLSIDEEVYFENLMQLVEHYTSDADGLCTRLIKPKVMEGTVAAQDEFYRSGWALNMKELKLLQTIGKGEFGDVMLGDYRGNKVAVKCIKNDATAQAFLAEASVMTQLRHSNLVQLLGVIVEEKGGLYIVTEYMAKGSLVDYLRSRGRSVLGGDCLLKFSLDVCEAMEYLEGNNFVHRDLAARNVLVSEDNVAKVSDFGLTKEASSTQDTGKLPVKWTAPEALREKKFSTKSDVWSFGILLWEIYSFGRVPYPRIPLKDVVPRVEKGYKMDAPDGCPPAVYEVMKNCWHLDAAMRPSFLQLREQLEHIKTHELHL
Chain of Casein kinase I isoform delta (P48730 whole entry, canonical isoform): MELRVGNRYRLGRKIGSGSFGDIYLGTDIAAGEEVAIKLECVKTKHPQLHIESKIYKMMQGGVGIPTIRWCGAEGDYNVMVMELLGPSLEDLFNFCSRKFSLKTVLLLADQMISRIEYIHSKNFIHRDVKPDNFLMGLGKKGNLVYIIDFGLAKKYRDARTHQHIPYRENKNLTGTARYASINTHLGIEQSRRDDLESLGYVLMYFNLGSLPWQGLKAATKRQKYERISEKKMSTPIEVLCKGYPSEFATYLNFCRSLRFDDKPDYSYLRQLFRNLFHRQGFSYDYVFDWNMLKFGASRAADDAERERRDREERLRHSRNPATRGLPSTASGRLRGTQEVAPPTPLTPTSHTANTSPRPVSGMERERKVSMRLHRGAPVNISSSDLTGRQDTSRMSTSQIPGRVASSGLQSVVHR
Chain of Tyrosine-protein kinase ITK/TSK (Q08881 whole entry): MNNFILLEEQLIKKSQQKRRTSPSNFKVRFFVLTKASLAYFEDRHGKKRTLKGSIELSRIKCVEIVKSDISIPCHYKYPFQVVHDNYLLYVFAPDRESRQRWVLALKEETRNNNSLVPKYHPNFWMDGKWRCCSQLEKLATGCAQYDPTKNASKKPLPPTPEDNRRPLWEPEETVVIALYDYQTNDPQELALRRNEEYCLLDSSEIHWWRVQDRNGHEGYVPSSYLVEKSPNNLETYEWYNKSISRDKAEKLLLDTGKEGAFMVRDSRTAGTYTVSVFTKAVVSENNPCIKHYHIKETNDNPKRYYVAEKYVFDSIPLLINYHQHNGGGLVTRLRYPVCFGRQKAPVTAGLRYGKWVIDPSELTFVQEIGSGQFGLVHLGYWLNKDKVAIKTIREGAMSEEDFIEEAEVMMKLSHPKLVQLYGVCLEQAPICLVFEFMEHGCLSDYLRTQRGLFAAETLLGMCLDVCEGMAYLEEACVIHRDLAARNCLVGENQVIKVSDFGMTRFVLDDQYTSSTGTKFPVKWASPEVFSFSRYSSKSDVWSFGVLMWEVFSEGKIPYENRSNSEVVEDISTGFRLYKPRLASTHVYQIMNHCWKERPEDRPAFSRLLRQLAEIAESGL
Chain of Tyrosine-protein kinase ZAP-70 (P43403 whole entry): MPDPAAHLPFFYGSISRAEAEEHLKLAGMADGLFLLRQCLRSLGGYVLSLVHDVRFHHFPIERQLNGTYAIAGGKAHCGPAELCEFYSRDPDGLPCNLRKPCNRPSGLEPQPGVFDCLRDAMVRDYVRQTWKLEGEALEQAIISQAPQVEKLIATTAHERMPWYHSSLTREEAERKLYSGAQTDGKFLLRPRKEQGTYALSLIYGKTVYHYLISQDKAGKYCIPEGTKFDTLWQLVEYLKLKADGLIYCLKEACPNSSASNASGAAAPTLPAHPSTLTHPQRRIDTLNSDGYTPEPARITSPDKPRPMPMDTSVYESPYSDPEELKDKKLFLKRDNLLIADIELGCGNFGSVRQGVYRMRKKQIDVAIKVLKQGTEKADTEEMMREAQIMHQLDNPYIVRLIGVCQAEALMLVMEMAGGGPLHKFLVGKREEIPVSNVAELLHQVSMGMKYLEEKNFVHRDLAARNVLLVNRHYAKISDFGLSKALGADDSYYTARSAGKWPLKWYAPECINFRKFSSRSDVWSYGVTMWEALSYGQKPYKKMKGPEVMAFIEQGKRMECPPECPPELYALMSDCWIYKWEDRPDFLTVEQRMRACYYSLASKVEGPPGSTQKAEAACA
Chain of Focal adhesion kinase 1 (Q05397 whole entry): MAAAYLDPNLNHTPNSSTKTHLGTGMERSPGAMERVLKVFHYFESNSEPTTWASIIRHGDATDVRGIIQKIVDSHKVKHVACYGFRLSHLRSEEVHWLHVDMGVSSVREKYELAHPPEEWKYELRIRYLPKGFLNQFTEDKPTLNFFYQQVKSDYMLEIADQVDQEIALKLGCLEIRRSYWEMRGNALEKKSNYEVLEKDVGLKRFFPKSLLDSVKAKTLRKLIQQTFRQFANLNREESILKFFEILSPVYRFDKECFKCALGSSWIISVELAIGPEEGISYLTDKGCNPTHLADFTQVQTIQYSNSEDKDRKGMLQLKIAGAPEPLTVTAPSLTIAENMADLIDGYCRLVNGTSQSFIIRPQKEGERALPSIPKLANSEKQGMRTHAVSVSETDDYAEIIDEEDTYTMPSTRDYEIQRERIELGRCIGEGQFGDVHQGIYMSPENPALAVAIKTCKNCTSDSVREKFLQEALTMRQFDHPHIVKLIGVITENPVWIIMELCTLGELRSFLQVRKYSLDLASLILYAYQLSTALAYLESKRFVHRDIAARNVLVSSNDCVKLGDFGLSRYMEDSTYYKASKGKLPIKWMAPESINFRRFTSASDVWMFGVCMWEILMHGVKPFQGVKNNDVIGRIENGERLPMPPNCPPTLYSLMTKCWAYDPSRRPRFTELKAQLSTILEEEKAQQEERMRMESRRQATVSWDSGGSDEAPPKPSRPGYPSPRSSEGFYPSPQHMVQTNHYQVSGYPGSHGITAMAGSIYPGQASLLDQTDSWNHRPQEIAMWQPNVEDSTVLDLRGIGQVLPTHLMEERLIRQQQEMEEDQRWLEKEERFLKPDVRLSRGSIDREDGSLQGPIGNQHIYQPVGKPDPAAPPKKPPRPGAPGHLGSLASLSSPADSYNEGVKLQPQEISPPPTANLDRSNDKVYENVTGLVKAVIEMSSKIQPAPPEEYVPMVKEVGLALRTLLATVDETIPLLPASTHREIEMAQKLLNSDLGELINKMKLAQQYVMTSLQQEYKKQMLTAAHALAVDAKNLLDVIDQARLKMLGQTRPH

Compound: C[C@@H]1CCN(C(=O)CC#N)C[C@@H]1n1ccc2cnc3[nH]cc(C#N)c3c21
- clearance [1]: 20.2 mL/min/kg
- Vd [2]: 0.97 L/kg
- half-life [3]: 7.86 h
- AUC(0-t) at 24 h [4]: 1110 ng·h/mL
- Cmax [5]: 178 ng/mL
- half-life [6]: 3.99 h
- AUC(0-t) at 24 h [7]: 916 ng·h/mL
- bioavailability [8]: 82.4%
- Tmax [9]: 0.33 h
- IC50 [10]: > 1000 nM
- IC50 [11]: > 1000 nM
- IC50 [12]: > 1000 nM
- IC50 [13]: > 1000 nM
- IC50 (Ephrin type-A receptor 2): > 1000 nM
- IC50 (Focal adhesion kinase 1): > 1000 nM
- IC50 [14]: > 1000 nM
- IC50 [15]: > 1000 nM
- IC50 [16]: > 1000 nM
- IC50 (Angiopoietin-1 receptor): > 1000 nM
- IC50 [17]: > 1000 nM
- IC50 [18]: > 1000 nM
- IC50 [19]: > 1000 nM
- IC50 [20]: > 1000 nM
- IC50 [21]: > 1000 nM
- IC50 [22]: > 1000 nM
- IC50 [23]: > 1000 nM
- IC50 [24]: > 1000 nM
- TDI (Cytochrome P450 3A4): 93%
- permeability [25]: 14 10^-6 cm/s
